Measured values: patent US10130695B2, “Compositions containing combinations of bioactive molecules derived from microbiota for treatment of disease” (priority 2013, dated 2018)

B1: flagellin: flagellin (SEQ ID NO 1), an antigen highly abundant in bacteria belonging to Clostridium Clusters IV, XIVa, and XVIII (protein)
chain: MVVQHNLQAMNSNRMLGITQKTASKSTEKLSSGYAINRAADNAAGLAISEKMRKQIRGLTQASTNAEDGISSVQTAEGALTEVHDMLQRMNELAIQAANGTNSEDDRSYIQDEIDQLTQEIDRVAETTKFNETYLLKGDTKNVDAMDYTYSYKAVTTNTVARASVLAAENTATGMSVSISFAANSGKVTAADSNNLAKAIRDQGFTITTSTQNGKVVYGLELNGSDAKANYTVSTVSMEAGTFKILNSNKQVVASVTISTTASFKKVSGMSQIVTAYSVSAAYATGDVYSLYDADGNAISANKLDKYFTAGGATEAGGIATTLSANSGVPKVYDVLGKEVSAVSIASTLVTAVKDKTAALKMNFHVGADGTDNNKIKINIEAMTAKSLGVNGLKVSGSSGTNATNAIEIIAGAIKKVSTQRSALGAVQNRLEHTINNLDNIVENTTAAESGIRDTDMATEMVKYSNANILSQAGQSMLAQSNQSNQGVLQLLQ

What was measured:
[1] = system: Splenic naïve (CD44loCD62Lhi) CD4+ T cells; assay: Treg induction in vitro (FACS); type: cell-based; settings: anti-CD3/anti-CD28 mAb-coated beads, TGF-β; compared to no treatment control; FIG. 1
Excerpt: First, to gain mechanistic insight into the induction of Tregs by bacteria belonging to Clostridium Clusters IV, XIVa, and XVIII, germ-free mice were colonized with a cocktail of bacteria comprising bacterial strains belonging to Clostridium Cluster IV, bacterial strains belonging to Clostridium Cluster XIVa, and bacterial strains belonging to Clostridium Cluster XVIII (“Clostridium-colonized mice”). To identify metabolites potentially involved in Treg induction, the hundreds of metabolites present in the luminal composition of Clostridium-colonized, ex-germ free mice were painstakingly investigated with NMR-based metabolome analysis coupled with principal component analysis (PCA). […] The influence of acetate, propionate, and butyrate on Treg induction in vitro was measured as follows: Splenic naïve (CD44^loCD62L^hi) CD4+ T cells were stimulated with anti-CD3 and anti-CD28 mAb-coated beads and cultured in the presence of T-cell antigen receptor signaling and TGF-β with or without each of these short-chain fatty acids listed above.

[2] = system: OT-I CD8 T cells with colonic lamina propria CD4+CD25+ Treg cells; assay: Cognate antigen-driven suppression assay; type: cell-based, mice; settings: experiment repeated adding flagellin; after 3 days
Description: Fourth, investigation was carried to determine whether bacteria belonging to Clostridium Clusters IV, XIVa, and XVIII provide bacterial antigens to T cells. To do this, assessment was carried out of the antigen specificity of Tregs accumulated in mice colonized by a mixture of 17strains belonging to Clostridium Clusters, […] (“17-mix”) using a cognate antigen-driven suppression assay. […] CD 11c+cells were isolated from spleens of SPF C57BL/6 mice, pulsed with 0.5 μM SIINFEKL (SEQ ID NO: 2) OT-I peptide alone or in combination with either of 5μM ISQAVHAAHAEINEAGR (SEQ ID NO: 3) OT-II peptide or autoclaved caecal contents from +17-mix mice, and plated at 5 x 10^4well. CD8OT-I T cells (Teff) were added to the CD11c+cell-seeded plates at 5 x 10^4/well. Then, CD4+CD25+T cells sorted from colonic LP of +17-mix mice (LP Treg) or from spleens of SPF OT-II mice (OT-II Treg) were added to the culture at the indicated ratio of Treg to Teff cells. After 3 days, all cells were harvested, stained with anti-CD4 and anti-CD8antibodies, and analysed by flow cytometry to enumerate the number of CD8 OT-I T cells. Depicted data in FIG. 4b represent average of duplicates. […]

Row | Molecule | differentiation of Treg cells [1] | colonic Lamina Propria Treg cells specific for the antigen [2]
1 | CCC(=O)O [propionate] | enhanced differentiation of Treg cells | 
2 | CC(=O)O [acetate] | enhanced differentiation of Treg cells | 
3 | B1 |  | colonic Lamina Propria Treg cells specific for flagellin were isolated
